The values that follow come from publication PMC5100981 (Antiviral research, 2016).

The test system of data set [1] is Enterovirus D68 (Fermon strain). Description: CPE inhibition assay. The class given is cell-based. The following applies: for EC50: Enterovirus D, RD, read-out: EC50, 50% effective (virus-inhibitory) concentration.
Data set [2] has as its system Rhinovirus 87 (F02-3607 Corn strain). The data set is described as follows: CPE inhibition assay. The class given is cell-based.
For data set [3], the system named is Enterovirus 71 (Tainan/4643/98 strain). The data set is described as follows: CPE inhibition assay. The class given is cell-based.
For data set [4], the system named is EV-D68 (US/KY/14-18953 strain). The data set is described as follows: Virus yield reduction. Format: cell-based, Enterovirus D68.
Data set [5] can be described thus: in vitro. The following applies: human.
Data set [6] deals with EV-D68/US/KY/14-18953. Description: CPE inhibition. Format: cell-based, Enterovirus D68. The note with it: for SI, selectivity index (CC50 / EC50): A549 cells; for EC50: Enterovirus D, EVD68, A549, read-out: EC50, 50% effective concentration.
Data set [7] concerns EV-D68/US/KY/14-18953. The data set is described as follows: CPE inhibition. Format: cell-based, Enterovirus D68. The following applies: for EC50: Enterovirus D, EVD68, HeLa Ohio1, read-out: EC50, 50% effective concentration; for SI, selectivity index (CC50 / EC50): HeLa-Ohio-1 cells.
Data set [8] can be described thus: in vitro. The note with it: human, uninfected A549 lung carcinoma cells, stationary monolayers.
For data set [9], the system named is RD human rhabdomyosarcoma cells.
Data set [10] concerns EV-71. The note with it: ref Zhang et al., 2013; cited from earlier work.
The mark [11] stands for this setting: Enterovirus D68/Fermon, RD cells.
Setting [12] is: EV-D68 US/KY/14-18953, RD cells.

Where two headings read alike, the source gives them in different places.

Turning to `Nc1cc2nc[nH]c2c(=O)[nH]1` [3-Deazaguanine, 3-deazaguanine], the figures for the “SI, selectivity index (CC50 / EC50)” value in [1], in data set [2] and in [3] were 54, 45 and 5, respectively. In data set [1], the EC50 came to 6.7 ± 1.6 µM. Further, the “SI, selectivity index (CC50 [from Table 1] / EC90)” value in data set [4] came out at 45. In data set [5], the CC50 amounted to 360 ± 227 µM.

On to `CC(C)S(=O)(=O)n1c(N)nc2ccc(/C(=N/O)c3ccccc3)cc21` [Enviroxime, enviroxime], for which the “SI, selectivity index (CC50 / EC50)” value in data set [1] (setting [11]) was determined as 352; in data set [2] (Rhinovirus 87, RD cells), 500; in data set [3] (Enterovirus 71, RD cells), 92; in data set [6] it was 89; in data set [7], 45. For the same compound, the EC50 turned out to be 0.27 ± 0.19 µM in data set [1], 0.77 ± 1.1 µM in [6] and 1.7 ± 0.72 µM in data set [7]. In data set [4] (setting [12]), the “SI, selectivity index (CC50 [from Table 1] / EC90)” value is given as 156. Also, the CC50 in data set [5] (uninfected RD rhabdomyosarcoma cells, stationary monolayers) was 66 ± 28 µM; in data set [8], 68 ± 13 µM.

`CCOC(=O)c1ccc(OCCC2CCN(c3ccc(C)nn3)CC2)cc1` [Pirodavir, pirodavir]: the “SI, selectivity index (CC50 / EC50)” value is reported as 3 in [1] (setting [11]); 24 in data set [3] (Enterovirus 71, RD cells); 13 in data set [6]; 5.3 in data set [7]. Moreover, the values for the EC50 in data set [1], in data set [6] and in data set [7] were 7 ± 3 µM, 11 ± 7.2 µM and 6.1 ± 2.8 µM, respectively. Besides, the “Overall activity against EV-D68 virus (in words)” value in [4] (CPE inhibited at much lower concentration than virus yield) is given as “poorly effective”. Also, in data set [4] (setting [12]), the “SI, selectivity index (CC50 [from Table 1] / EC90)” value was below 1. In addition, the CC50 in data set [9] came to 32 ± 18 µM.

Take `Cc1cc(CCCOc2c(C)cc(-c3noc(C(F)(F)F)n3)cc2C)on1` [Pleconaril, pleconaril]: in data set [1], the “SI, selectivity index (CC50 / EC50)” value is reported as 87 and the EC50 amounted to 0.13 ± 0.09 µM. Further, in data set [2], the “SI, selectivity index (CC50 / EC50)” value worked out at 7. In data set [4], the “SI, selectivity index (CC50 [from Table 1] / EC90)” value came out at 54. In addition, the CC50 in data set [5] was found to be 11.3 ± 6.3 µM.

For `NC(=O)c1ncn([C@@H]2O[C@H](CO)[C@@H](O)[C@H]2O)n1` [Ribavirin, ribavirin], the EC50 in data set [1] was determined as 147 ± 74 µM. Also, the CC50 in [5] amounted to 1100 ± 450 µM.

As for `CCOC(=O)/C=C/[C@H](C[C@@H]1CCNC1=O)NC(=O)[C@@H](CC(=O)[C@@H](NC(=O)c1cc(C)on1)C(C)C)Cc1ccc(F)cc1` [Rupintrivir, rupintrivir], the “SI, selectivity index (CC50 / EC50)” value is listed as 60910 in data set [1], 25280 in data set [2] and 7450 in [3]. Also, in [1], the EC50 worked out at 0.0022 µM. For the same compound, the “SI, selectivity index (CC50 [from Table 1] / EC90)” value in data set [4] is given as 33,500. Moreover, the “Treatment of EV-71 infection in suckling mice (mortality and clinical scores)” value in [10] was “effective”. In data set [5], this compound showed a CC50 of 134 ± 21 µM.
